What was measured:
[1] = molecular target: PBRM1 BD2 (Homo sapiens, UniProt Q86U86); test: Bromodomain Binding Assay; conditions: 10 μM Compound 074, read-out: Bromodomain Binding % of Control
[2] = molecular target: BRD4 BD2 (Homo sapiens, UniProt O60885); test: Bromodomain Binding Assay; conditions: 10 μM Compound 074, read-out: Bromodomain Binding % of Control
[3] = molecular target: BRD4 BD1 (Homo sapiens, UniProt O60885); test: Bromodomain Binding Assay; conditions: 10 μM Compound 074, read-out: Bromodomain Binding % of Control
[4] = tested on: MV4-11 acute myeloid leukemia xenograft; test: MV4-11 AML xenograft model in mice; conditions: for tumor growth inhibition (FIG. 3a): after 3 weeks of dosing
Experimental: MV4-11 cells were plated in a 96-well tissue culture plate at a density of 4,500 cells/90 μL/well and incubated at 37° C./5% CO2 for 24 hr. Cells were then treated with compounds at various concentrations (a 10-point, 3-fold serial dilution series starting at 20 μM) with a final concentration of 0.5% DMSO/well and then incubated in 37° C./5% CO2 for 72 hr. 10 μL the cell proliferation reagent CCK-8 (WST-8) was added into each well and incubated at 37° C./5% CO2 for 3-4 hr and the absorbance at 450 nm measured with an En Vision Plate Reader.
MV4-11 acute myeloid leukemia and SU-DHL-4 diffuse large B-cell lymphoma (ATCC, #CRL-2957) cells were cultured in medium supplemented with 10% fetal bovine serum at 37° C./5% CO2. 5×10^6 MV-4-11 or 1×10^7 SU-DHL-4 cells were collected and re-suspended in 0.1 mL of serum-free media with Matrigel (1:1 v/v) per mouse for subcutaneous inoculation in isoflurane anesthetized male BALB/c nude or C.B-17 scid mice, respectively (treated in accordance with AAALAC animal welfare guidelines). When the average tumor volumes reached 100-200 mm^3, tumor volume outliers were removed and the remaining animals randomly divided into groups of 6-8 with similar average tumor volumes in each group. […] The appearance and behavior of each mouse was observed and recorded daily. Body weights and tumor volumes were measured and recorded every 2-4 days and the results were expressed as group means±SEM. Pairwise statistical comparisons between groups were performed by one-way ANOVA, and p<0.05 was considered statistically significant.

[5] = molecular target: T1, TRIM24 (Homo sapiens, UniProt O15164); test: Bromodomain Binding Assay; conditions: 10 μM Compound 074, read-out: Bromodomain Binding % of Control
T1 construct: made in house; host or cells: T7 phage grown in E. coli host derived from BL21
T1 sequence (O15164 899-1004 limits assumed): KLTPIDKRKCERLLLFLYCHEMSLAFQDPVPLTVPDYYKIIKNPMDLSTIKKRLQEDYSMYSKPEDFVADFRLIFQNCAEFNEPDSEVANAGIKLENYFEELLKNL

[6] = tested on: SU-DHL-4 diffuse large B-cell lymphoma xenograft; test: SU-DHL-4 DLBCL xenograft model in mice
Experimental: 10 μL the cell proliferation reagent CCK-8 (WST-8) was added into each well and incubated at 37° C./5% CO2 for 3-4 hr and the absorbance at 450 nm measured with an En Vision Plate Reader.
5×10^6 MV-4-11 or 1×10^7 SU-DHL-4 cells were collected and re-suspended in 0.1 mL of serum-free media with Matrigel (1:1 v/v) per mouse for subcutaneous inoculation in isoflurane anesthetized male BALB/c nude or C.B-17 scid mice, respectively (treated in accordance with AAALAC animal welfare guidelines). When the average tumor volumes reached 100-200 mm^3, tumor volume outliers were removed and the remaining animals randomly divided into groups of 6-8 with similar average tumor volumes in each group. […] Animals were intravenously dosed at 25 mg/kg, 50 mg/kg or 100 mg/kg 1×/week for 3 or 4 weeks. The appearance and behavior of each mouse was observed and recorded daily. Body weights and tumor volumes were measured and recorded every 2-4 days and the results were expressed as group means±SEM. Pairwise statistical comparisons between groups were performed by one-way ANOVA, and p<0.05 was considered statistically significant.

[7] = Pharmacokinetics and tissue distribution in the MV4-11 xenograft model in mice; type: in vivo; conditions: for AUC(0-∞): 5 mg/kg single intravenous dose
Experimental: Pharmacokinetics and Tissue Distribution
15 female CB-17 SCID mice (treated in accordance with AAALAC animal welfare guidelines) were weighed and administered 5 mg/kg of compound 074 by a single intravenous injection. 0.10 mL of blood was collected from each mouse by submandibular vein and sodium heparin was added as an anticoagulant. Samples were collected before compound administration, and at 1 hr, 6 hr 24 hr and 48 hr time points after administration, with 3 mice sampled per time point. After collection, samples were placed on ice and the animals sacrificed to collect tumor and normal tissues. The method development and analysis of all samples were performed by the analytical laboratory at Shanghai Medicilon Inc. Intra-day accuracy evaluation of samples for quality control was carried out during sample analysis and a quality control accuracy of more than 66.7% of samples was required between to be 80-120%. Pharmacokinetic parameters were calculated using Phoenix WinNonlin7.0 software.

[8] = molecular target: EP300 (Homo sapiens, UniProt Q09472); test: Bromodomain Binding Assay; conditions: 10 μM Compound 074, read-out: Bromodomain Binding % of Control
EP300, sequence (Q09472 1049-1156 limits assumed): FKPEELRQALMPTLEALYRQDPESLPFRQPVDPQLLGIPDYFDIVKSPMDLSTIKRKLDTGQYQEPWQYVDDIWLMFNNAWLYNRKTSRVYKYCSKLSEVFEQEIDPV

[9] = molecular target: BRD2 BD2 (Homo sapiens, UniProt P25440); test: Bromodomain Binding Assay; conditions: 10 μM Compound 074, read-out: Bromodomain Binding % of Control
BRD2 BD2, sequence (P25440 344-453 limits assumed): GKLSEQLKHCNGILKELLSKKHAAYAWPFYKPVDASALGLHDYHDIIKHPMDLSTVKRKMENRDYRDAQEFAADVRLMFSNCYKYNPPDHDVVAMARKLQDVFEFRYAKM

[10] = molecular target: BRD7 (Homo sapiens, UniProt Q9NPI1); test: Bromodomain Binding Assay; conditions: 10 μM Compound 074, read-out: Bromodomain Binding % of Control
BRD7, sequence (Q9NPI1 131-235 limits assumed): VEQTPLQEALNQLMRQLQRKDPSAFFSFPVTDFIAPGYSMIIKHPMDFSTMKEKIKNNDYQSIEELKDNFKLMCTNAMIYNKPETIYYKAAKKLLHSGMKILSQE

[11] = molecular target: BRD3 BD1 (Homo sapiens, UniProt Q15059); test: Bromodomain Binding Assay; conditions: 10 μM Compound 074, read-out: Bromodomain Binding % of Control
BRD3 BD1, sequence (Q15059 34-140 limits assumed): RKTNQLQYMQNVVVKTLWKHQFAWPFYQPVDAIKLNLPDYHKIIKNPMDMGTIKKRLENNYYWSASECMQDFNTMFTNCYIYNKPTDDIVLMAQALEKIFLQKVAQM

[12] = molecular target: BRPF3 (Homo sapiens, UniProt Q9ULD4); test: Bromodomain Binding Assay; conditions: 10 μM Compound 074, read-out: Bromodomain Binding % of Control
BRPF3, sequence (Q9ULD4 589-693 limits assumed): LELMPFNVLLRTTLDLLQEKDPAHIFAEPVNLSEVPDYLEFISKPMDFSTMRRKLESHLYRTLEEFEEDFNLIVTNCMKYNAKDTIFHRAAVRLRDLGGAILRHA

[13] = molecular target: KAT2A (Homo sapiens, UniProt Q92830); test: Bromodomain Binding Assay; conditions: 10 μM Compound 074, read-out: Bromodomain Binding % of Control
KAT2A, sequence (Q92830 728-832 limits assumed): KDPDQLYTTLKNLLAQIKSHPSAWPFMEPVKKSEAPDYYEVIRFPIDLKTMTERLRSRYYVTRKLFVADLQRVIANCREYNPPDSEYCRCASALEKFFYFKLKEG

[14] = molecular target: CREBBP (Homo sapiens, UniProt Q92793); test: Bromodomain Binding Assay; conditions: 10 μM Compound 074, read-out: Bromodomain Binding % of Control
CREBBP, sequence (Q92793 1085-1192 limits assumed): as the sequence (Q09472 1049-1156 limits assumed) above, with S47N, I73V, Y93F, S98A counted along it

[15] = molecular target: BAZ2A (Homo sapiens, UniProt Q9UIF9); test: Bromodomain Binding Assay; conditions: 10 μM Compound 074, read-out: Bromodomain Binding % of Control
BAZ2A, sequence (Q9UIF9 1793-1897 limits assumed): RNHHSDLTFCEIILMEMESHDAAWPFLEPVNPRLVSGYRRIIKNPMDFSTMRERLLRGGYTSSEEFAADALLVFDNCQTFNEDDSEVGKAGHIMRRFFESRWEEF

[16] = molecular target: T2, TRIM133 (Homo sapiens, UniProt Q9UPN9); test: Bromodomain Binding Assay; conditions: 10 μM Compound 074, read-out: Bromodomain Binding % of Control
T2 construct: made in house; host or cells: T7 phage grown in E. coli host derived from BL21
T2 sequence (Q9UPN9 957-1080 limits assumed): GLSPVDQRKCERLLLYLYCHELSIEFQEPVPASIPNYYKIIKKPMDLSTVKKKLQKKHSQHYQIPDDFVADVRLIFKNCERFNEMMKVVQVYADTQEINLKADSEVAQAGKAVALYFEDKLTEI

[17] = molecular target: T3, TAF1 BD2 (Homo sapiens, UniProt P21675); test: Bromodomain Binding Assay; conditions: 10 μM Compound 074, read-out: Bromodomain Binding % of Control
T3 construct: made in house; host or cells: T7 phage grown in E. coli host derived from BL21
T3 sequence (P21675 1519-1628 limits assumed): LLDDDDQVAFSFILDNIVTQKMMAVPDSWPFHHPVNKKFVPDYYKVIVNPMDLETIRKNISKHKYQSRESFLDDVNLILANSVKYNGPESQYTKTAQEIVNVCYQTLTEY

[18] = 100 mg/kg intravenous 1×/week, after 4 weeks of dosing

PBRM1 BD2, sequence (Q86U86 177-287 limits assumed): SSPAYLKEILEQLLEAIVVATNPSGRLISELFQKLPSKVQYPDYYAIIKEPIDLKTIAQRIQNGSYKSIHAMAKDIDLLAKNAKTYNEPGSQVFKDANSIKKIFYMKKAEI

**Q.** For `Cc1sc2c(c1C)C(c1ccc(Cl)cc1)=N[C@@H](CC(=O)N1CCC(CN3CCN(Cc4ccc(-n5c(O)nnc5-c5cc(C(C)C)c(O)cc5O)cc4)CC3)CC1)c1nnc(C)n1-2.Cl` [Compound 74, (S)-2-(4-(4-chlorophenyl)-2,3,9-trimethyl-6H-thieno[3,2-f][1,2,4]triazolo[4,3-a][1,4]diazepin-6-yl)-1-(4-((4-(4-(3-(2,4-dihydroxy-5-isopropylphenyl)-5-hydroxy-4H-1,2,4-triazol-4-yl)benzyl)piperazin-1-yl)methyl)piperidin-1-yl)ethan-1-one hydrochloride], which remaining activity at 10 µM [1] is on record?
**A.** Its remaining activity at 10 µM is greater than 75%.

**Q.** And the remaining activity at 10 µM [2]?
**A.** The remaining activity at 10 µM was less than 10%.

**Q.** What about the remaining activity at 10 µM [3] of the same molecule?
**A.** Its remaining activity at 10 µM is less than 10%.

**Q.** What about the “animals tumor free at the end of the study” value ([4]; 50 mg/kg intravenous 1×/week) of the same molecule?
**A.** Its value is 1 out of 6.

**Q.** And the “tumor growth inhibition (FIG. 3a)” value ([4]; 50 mg/kg intravenous 1×/week)?
**A.** Its value is “significant tumor growth inhibition”.

**Q.** What about the “animals tumor free at the end of the study” value ([4]; 100 mg/kg intravenous 1×/week) of the same molecule?
**A.** The value was 4 out of 6.

**Q.** What about the “tumor growth inhibition (FIG. 3a)” value ([4]; 100 mg/kg intravenous 1×/week) of the same molecule?
**A.** The value was “significant tumor growth inhibition”.

**Q.** And the “animal deaths and body weights (FIG. 3b)” value ([4]; any group, MV4-11 xenograft)?
**A.** The value was “No animal deaths or significant effects on body weights were observed”.

**Q.** And the remaining activity at 10 µM [5]?
**A.** The remaining activity at 10 µM was greater than 75%.

**Q.** What about the “tumor growth inhibition (FIG. 4a)” value [6, 18] of the same molecule?
**A.** Its value is “significant tumor growth inhibition”.

**Q.** And the “tumor vs control (T/C) value” [6, 18]?
**A.** The value was 41%.

**Q.** What about the “animal deaths and body weights (FIG. 4b)” value ([6]; any dose level, SU-DHL-4 xenograft) of the same molecule?
**A.** Its value is “No animal deaths or significant effects on body weights were observed”.

**Q.** What about the “AUC(0-∞)” value ([7]; Heart) of the same molecule?
**A.** Its value is 8828.71 ng·h/g.

**Q.** And the “AUC(0-∞)” value ([7]; Liver)?
**A.** The value was 24415.49 ng·h/g.

**Q.** And the “AUC(0-∞)” value ([7]; Lung)?
**A.** The value was 14199.86 ng·h/g.

**Q.** What about the “AUC(0-∞)” value ([7]; Tumor) of the same molecule?
**A.** The value was 23857.20 ng·h/g.

**Q.** And the “half-life in tumors relative to plasma and other organs” value ([7]; times as long as in plasma and other organs)?
**A.** The value was 4.6-9.5 times.

**Q.** What about the remaining activity at 10 µM [8] of the same molecule?
**A.** The remaining activity at 10 µM was 11 to 75%.

**Q.** And the remaining activity at 10 µM [9]?
**A.** The remaining activity at 10 µM was less than 10%.

**Q.** What about the remaining activity at 10 µM [10] of the same molecule?
**A.** The remaining activity at 10 µM was greater than 75%.

**Q.** And the remaining activity at 10 µM [11]?
**A.** Its remaining activity at 10 µM is less than 10%.

**Q.** What about the remaining activity at 10 µM [12] of the same molecule?
**A.** Its remaining activity at 10 µM is greater than 75%.

**Q.** And the remaining activity at 10 µM [13]?
**A.** Its remaining activity at 10 µM is greater than 75%.

**Q.** And the remaining activity at 10 µM [14]?
**A.** Its remaining activity at 10 µM is greater than 75%.

**Q.** What about the remaining activity at 10 µM [15] of the same molecule?
**A.** Its remaining activity at 10 µM is greater than 75%.

**Q.** And the remaining activity at 10 µM [16]?
**A.** Its remaining activity at 10 µM is greater than 75%.

**Q.** What about the remaining activity at 10 µM [17] of the same molecule?
**A.** Its remaining activity at 10 µM is greater than 75%.

From patent publication US12540143B2, “Methods and compositions for targeted protein degradation” (Ranok Therapeutics (Hangzhou) Co. Ltd., priority 2019, dated 2026)
